{"source": "patent US20250066423A1", "about": "“SESTRIN-MAPK COMPLEX INHIBITORS” (Sentcell Ltd, priority 2021, published 2025)", "key": {"[1]": {"tested_on": "influenza specific antibody titres", "assay_type": "in vivo", "conditions": "old mice, single dose along with the vaccine, 2, 4 and 8 weeks after vaccination, versus young mice"}, "sestrin-AMPK interaction": {"molecular_target": "T1, sestrin-AMPK interaction (Homo sapiens, UniProt P58004)", "T1 construct": "endogenous in cells; host or cells: primary CD4+ T cells from PBMCs of healthy donors", "T1 sequence (P58004 1-480)": "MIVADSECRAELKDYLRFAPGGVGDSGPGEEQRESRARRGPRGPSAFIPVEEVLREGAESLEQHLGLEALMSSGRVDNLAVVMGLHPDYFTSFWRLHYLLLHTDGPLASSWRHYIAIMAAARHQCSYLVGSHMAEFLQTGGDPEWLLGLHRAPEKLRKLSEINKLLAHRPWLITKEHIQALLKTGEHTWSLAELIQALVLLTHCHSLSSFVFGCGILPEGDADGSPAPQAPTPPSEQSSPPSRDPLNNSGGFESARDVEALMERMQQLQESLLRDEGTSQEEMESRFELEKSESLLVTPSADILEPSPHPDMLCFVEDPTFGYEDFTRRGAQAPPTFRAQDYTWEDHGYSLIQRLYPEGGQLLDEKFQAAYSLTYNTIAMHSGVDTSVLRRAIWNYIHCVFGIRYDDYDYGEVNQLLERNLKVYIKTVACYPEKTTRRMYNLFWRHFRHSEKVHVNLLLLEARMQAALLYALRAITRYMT", "experiment": "ELISA coupled to sestrin 2 immunoprecipitation", "assay_type": "cell-based", "protocol": "(§1) FIG. 6 illustrates sMAC disruption by DOS46L. (A) CD4+ T cells were purified from PBMCs from healthy donors and treated with DOS46L (10 uM) for the indicated time points. The binding of AMPK to Sestrin 2 was quantified against the total level of Sestrin 2 immunoprecipitated and detected by ELISA. IgG immunoprecipitates served as background control. (B) Cells were pre-treated with proteasome-inhibitor MG-132 (10 uM) for 30 min and subsequently treated with DOS46L (10 uM) for 4 hours. Cells were harvested for immunoblot analysis or proceeded to immunoprecipitation. Levels of Sestrin 2, p38, and AMPK were evaluated by immunoblotting. H3 was used as a loading control. Representative images of 3 experiments are shown. (C) Immunoblot levels of Ubiquitin, Sestrin 2 and Histone 3 in Sestrin 2 immunoprecipitates and their lysates were analysed. Representative images are shown (top). The mean values (bottom) of ubiquitinated proteins in Sestrin 2 immunoprecipitates are shown. Results are presented as a mean±SD of 4 repeated experiments. Student's T-test was used to analyse the data. **p<0.01\n(§2) • 1. Cell pellet was lysed with 100 μL of denaturing lysis buffer • 2. Then mixed well by vortexing vigorously for 2-3 sec at maximum speed. • 3. Samples were then boiled at 95° C. for 5 min. • 4. Samples were then diluted 900 μl of non-denaturing lysis buffer and mixed gently. • 5. […]"}, "Sestrin 2": {"molecular_target": "T2, Sestrin 2 (Homo sapiens, UniProt P58004)", "T2 sequence (P58004 1-480)": "T1 sequence (P58004 1-480)", "experiment": "Proteasomal degradation and ubiquitination of sestrin 2 (MG-132 pre-treatment, immunoprecipitation, immunoblot)", "assay_type": "cell-based", "parameters": "endogenous in cells; host or cells: primary CD4+ T cells from PBMCs of healthy donors", "protocol": "as §1, §2"}}, "note": "Peptide text beside a SMILES is read from it."}
{"smiles": "CC[C@H](C)[C@@H]1NC(=O)[C@H](Cc2ccccc2)NC(=O)[C@H](C)NC(=O)[C@H](C(C)C)NC(=O)[C@@H]2CCCN2C1=O", "note": "[DOS46L] (cyclo(AFIPV))", "values": [{"measurement": "influenza specific antibody titres", "setting": "[1]", "value": "completely restored"}, {"measurement": "binding of AMPK to Sestrin 2", "setting": "sestrin-AMPK interaction; CD4+ T cells, 10 uM, 1 or 2 hours of treatment", "value": "decreased"}, {"measurement": "sestrin-AMPK interaction", "setting": "sestrin-AMPK interaction; compound added directly to the sestrin immunoprecipitates in vitro", "value": "disrupted"}, {"measurement": "inhibition of sestrin and AMPK after proteasome inhibitor pre-treatment", "setting": "Sestrin 2; MG-132 10 uM 30 min, then DOS46L 10 uM 4 hours", "value": "vanished"}, {"measurement": "ubiquitinated sestrin 2 immunoprecipitated", "setting": "Sestrin 2; T cells exposed to DOS46L 10 uM, 4 hours", "value": "increased amount"}]}
